{"source": "the NIST ThermoML archive (doi:10.1016/j.fluid.2010.08.026)", "key": {"[1]": {"details": "Closed cell (Static) method; for Normal melting temperature: Crystal 1"}, "[2]": {"assay": "Molar enthalpy of transition or fusion"}}, "note": "± gives the expanded uncertainty stated by the source."}
{"compound": "CC(O)CNCC(C)O", "note": "(stereo not given) [N-(2-hydroxypropyl)-2-hydroxy-1-propanamine]", "values": [{"measurement": "Normal melting temperature", "setting": "[1]", "value": 42.7, "unit": "°C"}, {"measurement": "Molar enthalpy of transition or fusion", "setting": "[2]; Crystal 1, Closed cell (Static) method", "value": 5.43, "unit": "kcal/mol"}]}
{"compound": "CN(CCO)CCO", "note": "[N-methyldiethanolamine]", "values": [{"measurement": "vapor or sublimation pressure", "setting": "[1]; 356.86 K, Liquid", "value": 0.2, "unit": "kPa"}, {"measurement": "Normal melting temperature", "setting": "[1]", "value": -23, "unit": "°C"}]}
{"compound": "CC(C)NC(C)C", "note": "[diisopropylamine]", "values": [{"measurement": "Molar enthalpy of transition or fusion", "setting": "[2]; Crystal, DSC", "value": "5.43 ± 0.172", "unit": "kcal/mol"}]}
